What is called IC50 is the concentration that inhibits the measured activity by half.

One assay addresses SHP2 (Homo sapiens (Human), UniProt Q06124). Kind of assay: SHP2 allosteric inhibitory enzyme activity assay (DiFMUP fluorescence). The class given is biochemical. Conditions: read-out: SHP2 enzymatic activity IC50. From the text:
Example A: SHP2 Allosteric Inhibitory Enzyme Activity Assay
SHP2 is allosterically activated by binding of a bis-tyrosyl-phosphorylated peptide to its Src homology 2 (SH2) domain. This later activation step results in the release of the autoinhibitory interface of SHP2, which in turn activates the SHP2 protein tyrosine phosphatase (PTP) and is available for substrate recognition and reaction catalysis. The catalytic activity of SHP2 was monitored using the surrogate DiFMUP in a rapid fluorescence assay format.
experiment procedure: • (1) Compound preparation: • The compounds of the present invention (10 mM stock solution) were diluted to appropriate times with 100% DMSO, and the final test concentrations of the compounds of the present invention were 10 µM, 3.3333 µM, 1.1111 µM, 0.3704 µM, 0.1235 µM, 0.0412 µM, 0.0137 µM, 0.0046 µM, 0.0015 µM, 0.00 µM; • (2) Prepare the enzyme reaction working solution: • Perform SHP2 enzymatic assays in 96-well black polystyrene plates (flat bottom, low flange, non-binding surface) (Perki Elmer, Cat#6005270) at room temperature using a final reaction volume of 50 µL and the following assay buffer conditions: 60 mM HEPES, 75 mM NaCl, 75 mM KCl, 0.05% BRIJ-35, 1 mM EDTA, 5 mM DTT. • (3) Enzyme-catalyzed reaction and data monitoring: • Add the compound of the present invention to the corresponding 96-well plate, and set the blank test well without compound and enzyme only with buffer. Thaw SHP2 Activating Peptide (IRS1_pY1172(dPEG8)pY1222) on ice, add 25 µM to each well, then add 0.2 ng of SHP2 protein sample to the corresponding well plate and incubate at room temperature for 1 hour. The surrogate substrate DiFMUP (Invitrogen, Cat #D6567) was added to the reaction and allowed to react for 1 hour at room temperature. Fluorescence signals were monitored using a microplate reader (Envision, Perki Elmer) using excitation and emission wavelengths of 340 nm and […], respectively. • (4) Data analysis: • Calculation Formula: • [formula]
Among them: Conversion_sample is the conversion rate reading of the sample; Conversion_min is the average value of blank control wells, representing the conversion rate readings of wells without enzymatic activity; Conversion_max is the mean ratio of positive control wells, representing the conversion rate readings of wells without compound inhibition. The log(inhibitor) vs. response-Variable slope of the analysis software GraphPad Prism was used to fit the dose-response curve, and the IC50 value of the compound for the enzymatic activity was calculated.

For another assay, the system named is leukemia cells MV-4-11. Kind of assay: Cell proliferation assay, CELL TITER-GLO (CTG) luminescence, MV-4-11. The class given is cell-based. The protocol: (§1) Example B: Cell Proliferation Assay
(§2) The effects of the compounds of the invention on the proliferation of leukemia cells MV-4-11 and lung cancer cells NCI-H358 were evaluated using in vitro cell assays. The detection method used in the experiment is the CELL TITER-GLO (CTG) luminescence method, which can detect the number of viable cells by quantifying ATP. Because ATP participates in a variety of enzymatic reactions in vivo, it is an indicator of the metabolism of living cells, and its content directly reflects the number and state of cells. During the experiment, CellTiter-Glo™ reagent was added to the cell culture medium to measure the luminescence value. The value is proportional to the amount of ATP, and ATP is positively related to the number of living cells, so the cell viability can be examined by detecting the ATP content.
(§3) experiment procedure: • (1) Cell plating: • Take a bottle of MV-4-11 cells in logarithmic growth phase, resuspend the cells by centrifugation and count them. After adjusting the cell density, they were seeded into a 96-well plate (Corning #3917). After culturing in a 5% CO2 incubator for 24 hrs, the compound of the present invention was added for treatment; • Take a bottle of NCI-H358 cells in logarithmic growth phase, digest and resuspend the cells, count them, adjust the cell density, and inoculate them into a 96-well transparent ultra-low adsorption cell culture plate (Corning #3474), inoculate 2000 cells per well. The plate was placed in an incubator at 37° C. and 5% CO2 for 24 hrs, and then the compound of the present invention was added for treatment; • (2) Cell compound treatment: • An appropriate amount of the compound of the present invention was prepared for cell treatment. The final concentration of the compound from high to low was 1000 nM, 333.3 nM, 111.1 nM, 37.04 nM, 12.35 nM, 4.115 nM, 1.372 nM, 0.4572 nM, 0.1524 nM, and 0 nM. The plate was placed in a 37° C., 5% CO2 incubator for 120 hrs. Only adding medium without cell wells was set as the blank group; the group with compound concentration of 0 nM was the zero-adjusting group. • (3) CTG detection: • After NCI-H358 cells were cultured for 96 hrs, 50 µL of CellTiter-Glo® Luminescent Cell Viability Assay solution was added to each well, shaken gently for 2 mins, and incubated at room temperature for 10 mins. The cell reaction system was transferred to a white-bottomed 96-well plate. Read the detection value of each well on a multi-function microplate reader. • After MV-4-11 cells were cultured for 120 hrs, 50 µL of CellTiter-Glo® Luminescent Cell Viability Assay solution was added to each well, gently shaken for 2 mins, and incubated at room temperature for 10 mins. Check the value. • (4) Data analysis: • Calculate the inhibition rate from the luminescence value readings, • [formula]
(§4) The log(inhibitor) vs. response-Variable slope of GraphPad Prism was fitted to dose-response curves and IC50s of compounds that inhibited cell proliferation were calculated.
For orientation: In ATP-based viability assays light output follows the ATP content of the culture.

For assay [1], the system named is lung cancer cells NCI-H358. Briefly: Cell proliferation assay, CELL TITER-GLO (CTG) luminescence, NCI-H358. Conditions: cultured for 96 hrs. The class given is cell-based. As to the method: as §1, §2, §3, §4
Setting [2] is: Homo sapiens, MV4-11, cultured for 120 hrs.
Setting [3] is: Homo sapiens, NCI-H358, ultra-low adsorption plate.

SHP2, sequence (Q06124 whole entry): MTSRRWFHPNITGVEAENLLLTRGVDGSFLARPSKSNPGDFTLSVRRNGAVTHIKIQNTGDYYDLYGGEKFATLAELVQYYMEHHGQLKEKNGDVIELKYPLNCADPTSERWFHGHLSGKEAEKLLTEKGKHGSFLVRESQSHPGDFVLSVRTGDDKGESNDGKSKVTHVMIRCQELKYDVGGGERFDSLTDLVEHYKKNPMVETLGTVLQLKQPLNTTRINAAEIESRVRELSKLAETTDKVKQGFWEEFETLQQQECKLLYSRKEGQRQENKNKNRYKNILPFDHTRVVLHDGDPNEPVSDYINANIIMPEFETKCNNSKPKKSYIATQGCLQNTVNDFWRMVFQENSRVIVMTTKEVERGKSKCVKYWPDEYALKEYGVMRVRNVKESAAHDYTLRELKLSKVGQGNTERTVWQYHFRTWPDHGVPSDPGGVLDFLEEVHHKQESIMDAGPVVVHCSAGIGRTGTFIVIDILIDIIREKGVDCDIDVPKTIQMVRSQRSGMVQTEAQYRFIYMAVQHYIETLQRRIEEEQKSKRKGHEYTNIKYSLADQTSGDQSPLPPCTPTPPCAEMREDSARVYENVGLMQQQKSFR

For the molecule `N[C@@H]1c2ccccc2CC12CCN(c1ncc(C#CCOc3ccccc3)nc1CO)CC2` [Compound A01, (S)-(3-(1-amino-1,3-dihydrospiro [indene-2,4′-piperidine]-1′-yl)-6-(3-phenoxyprop-1-yn-1-yl)pyrazin-2-yl)methanol], the IC50 was found to be 1.2 nM on SHP2, 2.6 nM with leukemia cells MV-4-11 (setting [2]) and 7.3 nM in assay [1] (setting [3]).
For the molecule `COc1cccc(OCC#Cc2cnc(N3CCC4(CC3)Cc3ccccc3[C@H]4N)c(CO)n2)c1` [Compound A02, (S)-(3-(1-amino-1,3-dihydrospiro [indene-2,4′-piperidine]-1′-yl)-6-(3-(3-methoxyphenoxy)prop-1-yn-1-yl)pyrazin-2-yl) methanol], the figures for the IC50 (at SHP2; with leukemia cells MV-4-11 (setting [2]); in assay [1] (setting [3])) were 0.7 nM, 5 nM and 7.8 nM, respectively.
Turning to `Nc1cccc(OCC#Cc2cnc(N3CCC4(CC3)Cc3ccccc3[C@H]4N)c(CO)n2)c1` [Compound A03], the IC50 was found to be 1.1 nM on SHP2, 1.5 nM with leukemia cells MV-4-11 (cultured for 120 hrs) and 2.5 nM in assay [1] (ultra-low adsorption plate).
With `CC(=O)Nc1cccc(OCC#Cc2cnc(N3CCC4(CC3)Cc3ccccc3[C@H]4N)c(CO)n2)c1` [Compound A04, (S)-N-(3-((3-(5-(1-amino-1,3-dihydrospiro[indene-2,4′-piperidin]-1′-yl)-6-(hydroxymethyl)pyrazin-2-yl)prop-2-yn-1-yl)oxy)phenyl)acetamide], the IC50 on SHP2 stood at 2.9 nM; in the assay on leukemia cells MV-4-11 (setting [2]), 3.6 nM; in assay [1] (setting [3]), 4 nM.
As for `N[C@@H]1c2ccccc2CC12CCN(c1ncc(C#CCOc3cccc(Cl)c3F)nc1CO)CC2` [Compound A05, (S)-(3-(1-amino-1,3-dihydrospiro[indene-2,4′-piperidin]-1′-yl)-6-(3-(3-chloro-2-fluorophenoxy)prop-1-yn-1-yl)pyrazin-2-yl)methanol], the IC50 with leukemia cells MV-4-11 (setting [2]) was found to be 14 nM; in assay [1] (setting [3]) it was 15 nM.
On the same counts, the results for `COc1ccccc1OCC#Cc1cnc(N2CCC3(CC2)Cc2ccccc2[C@H]3N)c(CO)n1` [Compound A10, (S)-(3-(1-amino-1,3-dihydrospiro[indene-2,4′-piperidin]-1′-yl)-6-(3-(2-methoxyphenoxy)prop-1-yn-1-yl)pyrazin-2-yl)methanol] are 4.4 nM and 4.3 nM.
Take `CC(=O)c1cccc(OCC#Cc2cnc(N3CCC4(CC3)Cc3ccccc3[C@H]4N)c(CO)n2)c1` [Compound A16, (S)-1-(3-((3-(5-(1-amino-1,3-dihydrospiro[indene-2,4′-piperidin]-1′-yl)-6-(hydroxymethyl)pyrazin-2-yl)prop-2-yn-1-yl)oxy)phenyl)etha n-1-one]: the IC50 came out at 6.9 nM in the assay on leukemia cells MV-4-11 (setting [2]) and 11 nM in assay [1] (setting [3]).
In the case of `CC(=O)Nc1cccc(OCC#Cc2cnc(N3CCC4(CC3)Cc3ccccc3[C@H]4N)n(C)c2=O)c1` [Compound A34, (S)-N-(3-((3-(2-(1-amino-1,3-dihydrospiro[indene-2,4′-piperidin]-1′-yl)-1-methyl-6-oxo-1,6-dihydropyrimidin-5-yl)prop-2-yn-1-yl)oxy)phenyl)acetamide], the IC50 with leukemia cells MV-4-11 (setting [2]) was found to be 25 nM; in assay [1] (setting [3]) it was 51 nM.
Regarding `CNC(=O)c1cccc(OCC#Cc2cnc(N3CCC4(CC3)Cc3ccccc3[C@H]4N)c(CO)n2)c1` [Compound A35, (S)-3-((3-(5-(1-amino-1,3-dihydrospiro[indene-2,4′-piperidine]-1′-yl)-6-(hydroxymethyl)pyrazin-2-yl)prop-2-yn-1-yl)oxy)-N-methylben zamide], the values for the IC50 (with leukemia cells MV-4-11 (setting [2]); in assay [1] (setting [3])) were 3 nM and 3.6 nM, respectively.
For `CN(C)C(=O)c1cccc(OCC#Cc2cnc(N3CCC4(CC3)Cc3ccccc3[C@H]4N)c(CO)n2)c1` [Compound A36, (S)-3-((3-(5-(1-amino-1,3-dihydrospiro[indene-2,4′-piperidin]-1′-yl)-6-(hydroxymethyl)pyrazin-2-yl)prop-2-yn-1-yl)oxy)-N,N-dimethylb enzamide], the IC50 with leukemia cells MV-4-11 (setting [2]) came out at 14 nM; in assay [1] (setting [3]) it was 48 nM.
With `NC(=O)c1nc(C#CCOc2ccc3c(c2)C(=O)NC3)cnc1N1CCC2(CC1)Cc1ccccc1[C@H]2N` [Compound A42], at SHP2, the IC50 stood at 15 nM.
`N[C@@H]1c2ccccc2CC12CCN(c1ncc(C#CCNc3ccc4c(c3)NC(=O)CC4)nc1CO)CC2` [Compound A64, (S)-7-((3-(5-(1-amino-1,3-dihydrospiro[indene-2,4′-piperidin]-1′-yl)-6-(hydroxymethyl)pyrazin-2-yl)prop-2-yn-1-yl)amino)-3,4-dihydroq uinolin-2(1H)-one]: the values for the IC50 (with leukemia cells MV-4-11 (setting [2]); in assay [1] (setting [3])) were 0.9 nM and 2.1 nM, respectively.
In the case of `N[C@@H]1c2ccccc2CC12CCN(c1ncc(C#CCOc3ccc4[nH]ncc4c3)nc1CO)CC2` [Compound A67, (S)-(6-(3-((1H-Indazol-5-yl)oxy)prop-1-yn-1-yl)-3-(1-amino-1,3-dihydrospiro[Indene-2,4′-piperidin]-1 ‘-yl)pyrazin-2-yl)methanol], the IC50 was 1 nM in the assay on leukemia cells MV-4-11 (setting [2]) and 0.9 nM in assay [1] (setting [3]).
Consider `Nc1nc2cc(OCC#Cc3cnc(N4CCC5(CC4)Cc4ccccc4[C@H]5N)c(CO)n3)ccc2o1` [Compound A69, (S)-(3-(1-amino-1,3-dihydrospiro[inden-2,4′-piperidin]-1′-yl)-6-(3-((2-Aminobenzo[d]oxazol-5-yl)oxy)prop-1-yn-1-yl)pyrazin-2-yl)met hanol], for which the IC50 was 0.7 nM in the assay on leukemia cells MV-4-11 (setting [2]) and 2.1 nM in assay [1] (setting [3]).
Take `N[C@@H]1c2ccccc2CC12CCN(c1ncc(C#CCOc3ccc(C(F)(F)F)nc3)nc1CO)CC2` [Compound A70, (S)-(3-(1-amino-1,3-dihydrospiro[indene-2,4′-piperidin]-1′-yl)-6-(3-( (6-(trifluoromethyl)pyridin-3-yl)oxy)prop-1-yn-1-yl)pyrazin-2-yl)m ethanol]: the IC50 in the assay with leukemia cells MV-4-11 (setting [2]) is 6.2 nM; in assay [1] (setting [3]) it was 17 nM.
In the case of `CNC(=O)c1ccc(OCC#Cc2cnc(N3CCC4(CC3)Cc3ccccc3[C@H]4N)c(CO)n2)cc1` [Compound A72, (S)-4-((3-(5-(1-amino-1,3-dihydrospiro[indene-2,4′-piperidin]-1′-yl)-6-(hydroxymethyl)pyrazin-2-yl)prop-2-yn-1-yl)oxy)-N-methylbenzamide], the IC50 was 1.8 nM in the assay on leukemia cells MV-4-11 (setting [2]) and 3.5 nM in assay [1] (setting [3]).

For the origin of these results see US20230339882A1, “SHP2 INHIBITOR AND COMPOSITION AND APPLICATION THEREOF” (Betta Pharmaceuticals Co., Ltd., priority 2020, published 2023).
